# Measurements from the supplement of paper PMC10307832.
# Key:
# Experiment in all cases: relative viability (nuclei count vs DMSO), 5 days (fraction); higher = more cells survive
# [1] = compound: C1=CC2=NC=CN=C2C=C1/C=C/3\C(=O)NC(=O)S3
# Procedure, shortened: (§1)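 Following overnight incubation at 37 °C, lung cancer cell lines in 1536-well plates were pinned with five library-drug doses (not always all listed) in √10 steps on vehicle-anchored plates. The cells then spent 5 days without medium change before a combined fix, permeabilisation and Hoechst stain, 4× imaging and MetaXpress nuclear counts. Viability is the treated-to-vehicle ratio of nuclei, taken as the median across plates. Only plates with control CV below 25% and at least one doubling passed.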
# BGJ398 = compound: CCN1CCN(c2ccc(Nc3cc(N(C)C(=O)Nc4c(Cl)c(OC)cc(OC)c4Cl)ncn3)cc2)CC1 [BGJ398]
# Procedure, shortened: as §1
# [2] = compound: C1=CC2=NC=CN=C2C=C1/C=C/3\C(=O)NC(=O)S3 + CC(=O)Nc1cccc(-n2c(=O)n(C3CC3)c(=O)c3c(Nc4ccc(I)cc4F)n(C)c(=O)c(C)c32)c1 [Trametinib] (partner 0.02 µM)
# Procedure, shortened: (§2)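 Relative viability divides the nuclei count in treated wells by that in vehicle wells. Lung cancer cell lines were seeded in 1536-well plates, dosed by pin tool the next day, and fixed and stained after 5 days in one step with final 0.05% Triton X-100, 1% formaldehyde and 1 ug/ml Hoechst. Dosing was a single drug or a fixed anchor-drug dose plus five library-drug doses (not always all listed) in √10 steps, and values are medians of duplicate plates imaged at 4×.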
# BGJ398 + Navitoclax = compound: CCN1CCN(c2ccc(Nc3cc(N(C)C(=O)Nc4c(Cl)c(OC)cc(OC)c4Cl)ncn3)cc2)CC1 [BGJ398] + CC1(C)CCC(c2ccc(Cl)cc2)=C(CN2CCN(c3ccc(C(=O)NS(=O)(=O)c4ccc(N[C@H](CCN5CCOCC5)CSc5ccccc5)c(S(=O)(=O)C(F)(F)F)c4)cc3)CC2)C1 [Navitoclax] (partner 0.5 µM)
# Procedure, shortened: as §2
Cell Line,relative viability ([1]; 0.02 µM),relative viability ([1]; 0.06325 µM),relative viability ([1]; 0.2 µM),relative viability ([1]; 0.6325 µM),relative viability ([1]; 2 µM),relative viability (BGJ398; 0.01 µM),relative viability (BGJ398; 0.03162 µM),relative viability (BGJ398; 0.1 µM),relative viability (BGJ398; 0.3162 µM),relative viability (BGJ398; 1 µM),relative viability ([2]; first compound 0.02 µM),relative viability ([2]; first compound 0.06325 µM),relative viability ([2]; first compound 0.2 µM),relative viability ([2]; first compound 0.6325 µM),relative viability ([2]; first compound 2 µM),relative viability (BGJ398 + Navitoclax; first compound 0.01 µM),relative viability (BGJ398 + Navitoclax; first compound 0.03162 µM),relative viability (BGJ398 + Navitoclax; first compound 0.1 µM),relative viability (BGJ398 + Navitoclax; first compound 0.3162 µM),relative viability (BGJ398 + Navitoclax; first compound 1 µM)
NCI-H2126,0.885,1.07,0.956,0.979,0.621,1.02,0.999,1.04,0.989,0.948,0.481,0.591,0.538,0.533,0.48,0.809,0.831,0.888,0.839,0.902
NCI-H3122,1,1.04,0.975,0.949,0.984,0.934,1.01,1.04,0.977,1.01,0.246,0.261,0.237,0.191,0.235,0.989,1.01,1.06,0.984,1.05
NCI-H1975,0.842,1.02,0.964,0.884,0.813,0.876,1.06,1.09,0.937,0.866,0.273,0.361,0.355,0.33,0.241,1.11,1.09,1.12,1.19,1.05
NCI-H1944,0.902,1.07,1.09,0.871,0.77,0.869,0.985,0.973,0.873,0.946,0.394,0.384,0.395,0.38,0.394,0.986,1.05,1.08,0.884,1.05
LU99A,1.07,1.11,0.979,0.871,0.518,0.884,0.95,0.89,0.908,0.792,0.564,0.47,0.607,0.587,0.427,0.769,0.755,0.696,0.724,0.512
SW 1573,0.984,1.26,1.09,0.948,0.79,0.975,0.934,0.94,0.893,0.999,0.538,0.683,0.57,0.572,0.445,0.82,1.22,1.05,0.981,0.91
NCI-H2347,0.971,0.913,1,1,0.918,0.957,1.09,1.06,1.04,0.94,0.296,0.295,0.225,0.312,0.156,0.671,0.939,0.828,0.835,0.777
NCI-H2009,0.996,1.03,1.04,1.02,0.923,0.924,1.07,0.994,0.974,1.06,0.256,0.356,0.284,0.252,0.232,1.21,1.19,1.18,1.23,1.17
HCC-15,1,0.921,0.972,0.921,0.818,1.01,1.01,1.07,1.13,0.887,0.41,0.393,0.397,0.353,0.263,0.723,0.75,0.747,0.734,0.769
HCC-44,0.895,1.03,0.991,0.965,0.745,0.998,0.986,0.987,0.993,0.826,0.961,1,1.05,1.12,1,0.797,0.91,1.13,1.06,0.866
COR-L23,0.967,1.15,1.02,0.938,0.976,0.96,1.06,1.12,1.02,1.09,0.557,0.596,0.617,0.567,0.422,1.05,0.978,0.986,0.966,1.08
HCC-78,0.9,0.845,1.04,0.979,0.507,0.881,0.911,0.933,1.02,0.86,0.772,0.643,0.677,0.794,0.532,0.734,0.751,0.935,0.879,0.823
NCI-H727,0.931,0.856,1.13,0.888,0.558,0.868,0.879,0.917,0.957,0.917,0.386,0.369,0.407,0.397,0.29,0.487,0.485,0.337,0.547,0.453
NCI-H2087,0.918,0.925,1.05,0.951,0.926,1.01,1.01,0.966,1.08,1.09,0.178,0.188,0.17,0.179,0.233,0.847,0.973,0.83,0.974,0.741
BEN,0.922,0.922,1.03,0.961,0.839,0.891,0.964,0.947,0.845,0.809,1.06,0.885,0.986,1.05,0.856,0.0852,0.15,0.0576,0.0618,0.0501
EKVX,0.927,0.885,0.987,0.936,0.786,0.865,0.942,1.08,0.871,0.986,0.301,0.392,0.32,0.322,0.33,0.896,1.02,1.16,0.874,0.992

Cell Line,relative viability ([1]; 0.02 µM),relative viability ([1]; 0.06325 µM),relative viability ([1]; 0.2 µM),relative viability ([1]; 0.6325 µM),relative viability ([1]; 2 µM),relative viability (BGJ398; 0.01 µM),relative viability (BGJ398; 0.03162 µM),relative viability (BGJ398; 0.1 µM),relative viability (BGJ398; 0.3162 µM),relative viability (BGJ398; 1 µM),relative viability ([2]; first compound 0.02 µM),relative viability ([2]; first compound 0.06325 µM),relative viability ([2]; first compound 0.2 µM),relative viability ([2]; first compound 0.6325 µM),relative viability ([2]; first compound 2 µM),relative viability (BGJ398 + Navitoclax; first compound 0.01 µM),relative viability (BGJ398 + Navitoclax; first compound 0.03162 µM),relative viability (BGJ398 + Navitoclax; first compound 0.1 µM),relative viability (BGJ398 + Navitoclax; first compound 0.3162 µM),relative viability (BGJ398 + Navitoclax; first compound 1 µM)
LXF-289,0.996,0.95,0.956,0.97,1.01,0.949,0.948,0.944,0.875,0.942,0.671,0.655,0.649,0.662,0.688,0.933,0.905,0.892,0.873,0.831
NCI-H1650,0.953,0.952,0.974,1,0.975,0.874,0.747,0.909,0.487,0.692,0.541,0.595,0.686,0.559,0.63,0.859,1.04,0.649,0.699,0.817
NCI-H2085,0.952,1.01,1,0.983,0.892,0.951,1.01,1.01,0.938,1.03,0.477,0.427,0.56,0.511,0.51,1.09,1.13,1.15,1.23,1.05
NCI-H1793,0.81,0.729,1.02,0.739,0.736,0.877,0.644,0.927,0.698,0.808,0.411,0.334,0.434,0.421,0.529,0.417,–,0.391,0.251,0.326
LC-2-ad,0.973,0.987,1.11,0.917,0.758,0.977,1.03,0.977,0.994,0.906,0.884,0.991,0.931,0.972,0.83,0.366,0.575,0.519,0.612,0.392
COR-L 105,0.904,1.05,1.01,0.912,0.741,0.875,0.744,0.961,0.83,0.875,0.422,0.549,0.451,0.408,0.423,0.707,0.805,0.815,0.827,0.598
NCI-H1355,0.821,0.984,1.05,0.923,0.875,0.943,0.961,1.02,0.971,0.795,0.385,0.432,0.462,0.413,0.382,0.955,0.92,0.996,0.914,0.825
H3255,0.984,1.02,1.01,0.934,0.946,0.945,–,1,0.843,0.999,0.607,0.698,0.643,0.6,0.699,0.477,0.161,0.614,0.408,0.548
NCI-H1993,0.815,0.956,1.02,0.923,0.622,1.24,0.893,0.957,0.972,0.886,0.516,0.527,0.504,0.452,0.506,1.02,0.836,0.909,1.02,0.882
NCI-H1734,0.94,–,1.07,0.916,0.635,0.895,1.02,1.06,0.93,1.05,0.645,–,0.802,0.625,0.653,0.836,0.878,0.81,0.832,0.826
HOP-62,0.929,0.945,1.06,1,0.943,0.983,1.07,1.07,0.982,1.02,0.355,0.366,0.419,0.369,0.38,0.915,1,1.1,1.02,1.01
LOU-NH91,0.997,0.988,1.01,0.978,0.805,0.935,0.883,0.971,0.771,0.931,0.791,0.808,0.799,0.792,0.726,0.685,0.402,0.668,0.427,0.701
ChaGo-K-1,0.972,0.991,1.09,0.919,0.891,1.06,0.987,1.03,1.03,1.02,0.9,0.785,0.888,0.887,0.872,1.06,0.913,0.76,0.69,0.444
NCI-H2228,0.898,1.06,1.22,0.898,0.842,0.814,1.18,1.38,0.876,0.963,0.51,0.556,0.562,0.398,0.338,0.728,1.04,0.998,0.893,0.867
PC-14,1.02,1.02,1.01,0.982,0.989,1.01,0.732,1.04,0.766,0.93,0.702,1.16,0.835,0.738,0.938,1.01,1.05,1.06,1.04,0.998
